# Results: ChEMBL document CHEMBL1201862, “PubChem BioAssay data set” (2004)
#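 In this assay, cells in 96-well plates receive the compound at five concentrations for 48 hours. Endpoints are linearly interpolated between the surrounding concentrations. GI50 is the concentration that inhibits growth by half.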 Active and inactive are the calls of the source. No stated cut-off is given here; in the data, active = GI50 up to about 1.1 µM and inactive = higher.
# Legend:
# Assay in all cases: DTP human tumour cell line panel, 48 h
# [1] = test system: HCT-116
# [2] = test system: A549
# [3] = test system: A498
# [4] = test system: EKVX
# [5] = test system: HCC 2998
# [6] = test system: HOP-18
# [7] = test system: RXF 631
# [8] = test system: SN12C
# [9] = test system: SK-OV-3
# [10] = test system: HOP-92
# [11] = test system: SK-MEL-2
# [12] = test system: HT-29
# [13] = test system: COLO 205
# [14] = test system: UO-31
# [15] = test system: MOLT-4
# [16] = test system: M19-MEL
# [17] = test system: Malme-3M
# [18] = test system: NCI-H522
# [19] = test system: SNB-78
# [20] = test system: HCT-15
# [21] = test system: SR
# [22] = test system: SK-MEL-28
# [23] = test system: KM-20L2
# [24] = test system: CAKI-1
# [25] = test system: SK-MEL-5
# [26] = test system: RPMI-8226
# [27] = test system: SF-539
# [28] = test system: IGROV-1
# [29] = test system: SNB-19
# [30] = test system: KM12
# [31] = test system: U-251
# [32] = test system: M14
# [33] = test system: OVCAR-8
# [34] = test system: XF498
# [35] = test system: SF-295
# [36] = test system: SW-620
# [37] = test system: HOP-62
# [38] = test system: LXFL 529
# [39] = test system: SNB-75
# [40] = test system: SF-268
# [41] = test system: OVCAR-3
# [42] = test system: OVCAR-5
# [43] = test system: DMS-273
# [44] = test system: HL-60
# [45] = test system: CCRF-CEM
# [46] = test system: NCI-H226
# [47] = test system: K562
# [48] = test system: OVCAR-4
# [49] = test system: NCI-H460
# [50] = test system: ACHN
# [51] = test system: NCI-H23
# [52] = test system: RXF 393
# [53] = test system: UACC-62
# [54] = test system: 786-0
# [55] = test system: DLD-1
# [56] = test system: TK-10
# [57] = test system: UACC-257
# [58] = test system: DMS-114
smiles,measurement,setting,value
N#Cc1ccc([N+](=O)[O-])cc1NC(N)=S,GI50,[1],> 100 µM (inactive)
same,GI50,[2],> 100 µM (inactive)
same,GI50,[3],> 100 µM (inactive)
same,GI50,[4],> 100 µM (inactive)
same,GI50,[5],> 100 µM (inactive)
same,GI50,[6],> 100 µM (inactive)
same,GI50,[7],> 100 µM (inactive)
same,GI50,[8],> 100 µM (inactive)
same,GI50,[9],> 100 µM (inactive)
same,GI50,[10],> 100 µM (inactive)
same,GI50,[11],> 100 µM (inactive)
same,GI50,[12],> 100 µM (inactive)
same,GI50,[13],> 100 µM (inactive)
same,GI50,[14],> 100 µM (inactive)
same,GI50,[15],> 100 µM (inactive)
same,GI50,[16],> 100 µM (inactive)
same,GI50,[17],> 100 µM (inactive)
same,GI50,[18],> 100 µM (inactive)
same,GI50,[19],> 100 µM (inactive)
same,GI50,[20],> 100 µM
same,GI50,[21],> 100 µM (inactive)
same,GI50,[22],> 100 µM (inactive)
same,GI50,[23],> 100 µM (inactive)
same,GI50,[24],> 100 µM (inactive)
same,GI50,[25],> 100 µM (inactive)
same,GI50,[26],> 100 µM (inactive)
same,GI50,[27],> 100 µM (inactive)
same,GI50,[28],> 100 µM (inactive)
same,GI50,[29],> 100 µM (inactive)
same,GI50,[30],> 100 µM (inactive)
same,GI50,[31],> 100 µM (inactive)
same,GI50,[32],> 100 µM (inactive)
same,GI50,[33],> 100 µM (inactive)
same,GI50,[34],> 100 µM (inactive)
same,GI50,[35],> 100 µM (inactive)
same,GI50,[36],> 100 µM (inactive)
same,GI50,[37],> 100 µM (inactive)
same,GI50,[38],16.3 µM (inactive)
same,GI50,[39],> 100 µM (inactive)
same,GI50,[40],> 100 µM (inactive)
same,GI50,[41],> 100 µM (inactive)
same,GI50,[42],> 100 µM (inactive)
same,GI50,[43],> 100 µM (inactive)
CCC(=O)C12OC3OC(C)(C)OC3C1OC(C)(C)O2 (stereo unspecified),GI50,[1],> 100 µM (inactive)
same,GI50,[2],> 100 µM (inactive)
same,GI50,[3],> 100 µM (inactive)
same,GI50,[44],> 100 µM (inactive)
same,GI50,[45],> 100 µM (inactive)
same,GI50,[4],> 100 µM (inactive)
same,GI50,[5],> 100 µM (inactive)
same,GI50,[7],> 100 µM (inactive)
same,GI50,[46],> 100 µM (inactive)
same,GI50,[8],> 100 µM (inactive)
same,GI50,[9],> 100 µM (inactive)
same,GI50,[10],> 100 µM (inactive)
same,GI50,[11],> 100 µM (inactive)
same,GI50,[12],> 100 µM (inactive)
same,GI50,[14],> 100 µM (inactive)
same,GI50,[47],> 100 µM (inactive)
same,GI50,[48],> 100 µM (inactive)
same,GI50,[49],> 100 µM (inactive)
same,GI50,[15],> 100 µM (inactive)
same,GI50,[50],> 100 µM (inactive)
same,GI50,[16],> 100 µM (inactive)
same,GI50,[51],> 100 µM (inactive)
same,GI50,[17],9.44 µM (inactive)
same,GI50,[18],> 100 µM (inactive)
same,GI50,[19],> 100 µM (inactive)
same,GI50,[21],> 100 µM (inactive)
same,GI50,[22],> 100 µM (inactive)
same,GI50,[24],> 100 µM (inactive)
same,GI50,[25],> 10 µM (inactive)
same,GI50,[27],> 100 µM (inactive)
same,GI50,[28],> 100 µM (inactive)
same,GI50,[29],> 100 µM (inactive)
same,GI50,[30],> 100 µM (inactive)
same,GI50,[31],> 100 µM (inactive)
same,GI50,[32],> 100 µM (inactive)
same,GI50,[33],> 100 µM (inactive)
same,GI50,[52],> 100 µM (inactive)
same,GI50,[34],> 100 µM (inactive)
same,GI50,[35],> 100 µM (inactive)
same,GI50,[36],> 100 µM (inactive)
same,GI50,[37],> 100 µM (inactive)
same,GI50,[53],> 100 µM (inactive)
same,GI50,[54],> 100 µM (inactive)
same,GI50,[55],> 100 µM (inactive)
same,GI50,[39],> 100 µM (inactive)
same,GI50,[40],> 100 µM (inactive)
same,GI50,[56],> 100 µM (inactive)
same,GI50,[41],> 100 µM (inactive)
same,GI50,[42],> 100 µM (inactive)
same,GI50,[43],> 100 µM (inactive)
same,GI50,[57],> 100 µM (inactive)
Cc1ccc2c(c1-c1ccccc1)C(=O)OC2,GI50,[1],> 100 µM (inactive)
same,GI50,[2],> 100 µM (inactive)
same,GI50,[3],> 100 µM (inactive)
same,GI50,[44],> 100 µM (inactive)
same,GI50,[45],> 100 µM (inactive)
same,GI50,[4],17.1 µM (inactive)
same,GI50,[5],> 100 µM (inactive)
same,GI50,[6],> 100 µM (inactive)
same,GI50,[7],> 100 µM (inactive)
same,GI50,[46],> 100 µM (inactive)
same,GI50,[8],> 100 µM (inactive)
same,GI50,[9],> 100 µM (inactive)
same,GI50,[58],99.3 µM (inactive)
same,GI50,[11],> 100 µM (inactive)
same,GI50,[12],> 100 µM (inactive)
same,GI50,[13],> 100 µM (inactive)
same,GI50,[14],75 µM (inactive)
same,GI50,[47],56.1 µM (inactive)
same,GI50,[48],> 100 µM (inactive)
same,GI50,[15],94.4 µM (inactive)
same,GI50,[50],> 100 µM (inactive)
same,GI50,[16],> 100 µM (inactive)
same,GI50,[51],> 100 µM (inactive)
same,GI50,[17],> 100 µM (inactive)
same,GI50,[18],> 100 µM (inactive)
same,GI50,[19],37 µM (inactive)
same,GI50,[20],> 100 µM
same,GI50,[21],90.6 µM (inactive)
same,GI50,[22],> 100 µM (inactive)
same,GI50,[23],20.4 µM (inactive)
same,GI50,[24],> 100 µM (inactive)
same,GI50,[25],> 100 µM (inactive)
same,GI50,[26],> 100 µM (inactive)
same,GI50,[28],> 100 µM (inactive)
same,GI50,[29],> 100 µM (inactive)
same,GI50,[30],> 100 µM (inactive)
same,GI50,[31],> 100 µM (inactive)
same,GI50,[32],> 100 µM (inactive)
same,GI50,[33],> 100 µM (inactive)
same,GI50,[52],> 100 µM (inactive)
same,GI50,[36],> 100 µM (inactive)
same,GI50,[37],> 100 µM (inactive)
same,GI50,[53],28.7 µM (inactive)
same,GI50,[38],> 100 µM (inactive)
same,GI50,[54],> 100 µM (inactive)
same,GI50,[55],> 100 µM (inactive)
same,GI50,[39],> 100 µM (inactive)
same,GI50,[40],> 100 µM (inactive)
same,GI50,[56],> 100 µM (inactive)
same,GI50,[41],76.7 µM (inactive)
same,GI50,[43],> 100 µM (inactive)
same,GI50,[57],> 100 µM (inactive)
